ChEMBL document CHEMBL4393657, “Tetrazole hybrids and their antifungal activities” (2019)
In brackets after ≈: the same amount, converted by molar mass.

Experiments:
Type in all cases: functional
[1] = test system: Nakaseomyces glabratus; assay: Antifungal activity against Candida glabrata assessed as reduction in fungal cell growth incubated for 48 hrs by broth microdilution method
[2] = test system: Pichia kudriavzevii; assay: Antifungal activity against Candida krusei assessed as reduction in fungal cell growth incubated for 48 hrs by broth microdilution method
[3] = test system: Aspergillus niger; assay: Antifungal activity against Aspergillus niger assessed as reduction in fungal cell growth incubated for 72 hrs by broth microdilution method
[4] = test system: Candida tropicalis; assay: Antifungal activity against Candida tropicalis assessed as reduction in fungal cell growth incubated for 48 hrs by broth microdilution method
[5] = test system: Cryptococcus neoformans; assay: Antifungal activity against Cryptococcus neoformans LA314 assessed as reduction in fungal cell growth incubated for 48 hrs by broth microdilution method; details: LA314, 48 h
[6] = test system: Candida albicans; assay: Antifungal activity against Candida albicans assessed as reduction in fungal cell growth incubated for 48 hrs by broth microdilution method
[7] = test system: Candida parapsilosis; assay: Antifungal activity against Candida parapsilosis ATCC 22019 assessed as reduction in fungal cell growth incubated for 48 hrs by broth microdilution method; details: Lodderomyces parapsilosis, ATCC 22019, 48 h

Row | SMILES | MIC [1] | MIC [2] | MIC [3] | MIC [4] | MIC [5] | MIC [6] | MIC [7]
1 | OC(Cn1cncn1)(Cn1nnc(CCN2CCN(c3ccccn3)CC2)n1)c1ccc(F)cc1F (stereo not drawn) | 1 to 16 mg/L (≈ 2.01 to 32.2 µM) | 1 to 16 mg/L (≈ 2.01 to 32.2 µM) | 1 to 16 mg/L (≈ 2.01 to 32.2 µM) | 1 to 16 mg/L (≈ 2.01 to 32.2 µM) | 1 to 16 mg/L (≈ 2.01 to 32.2 µM) | 1 to 16 mg/L (≈ 2.01 to 32.2 µM) | 1 to 16 mg/L (≈ 2.01 to 32.2 µM)
2 | OC(Cn1cncn1)(Cn1nnc(CCN2CCN(c3ccccc3)CC2)n1)c1ccc(F)cc1F (stereo not drawn) | 1 to 16 mg/L (≈ 2.02 to 32.3 µM) | 1 to 16 mg/L (≈ 2.02 to 32.3 µM) | 1 to 16 mg/L (≈ 2.02 to 32.3 µM) | 1 to 16 mg/L (≈ 2.02 to 32.3 µM) | 1 to 16 mg/L (≈ 2.02 to 32.3 µM) | 1 to 16 mg/L (≈ 2.02 to 32.3 µM) | 1 to 16 mg/L (≈ 2.02 to 32.3 µM)
3 | COc1ccccc1N1CCN(CCc2nnn(CC(O)(Cn3cncn3)c3ccc(F)cc3F)n2)CC1 (stereo not drawn) | 1 to 16 mg/L (≈ 1.9 to 30.4 µM) | 1 to 16 mg/L (≈ 1.9 to 30.4 µM) | 1 to 16 mg/L (≈ 1.9 to 30.4 µM) | 1 to 16 mg/L (≈ 1.9 to 30.4 µM) | 1 to 16 mg/L (≈ 1.9 to 30.4 µM) | 1 to 16 mg/L (≈ 1.9 to 30.4 µM) | 1 to 16 mg/L (≈ 1.9 to 30.4 µM)
4 | OC(Cn1cncn1)(Cn1nnc(CCN2CCN(c3ccccc3Cl)CC2)n1)c1ccc(F)cc1F (stereo not drawn) | 1 to 16 mg/L (≈ 1.89 to 30.2 µM) | 1 to 16 mg/L (≈ 1.89 to 30.2 µM) | 1 to 16 mg/L (≈ 1.89 to 30.2 µM) | 1 to 16 mg/L (≈ 1.89 to 30.2 µM) | 1 to 16 mg/L (≈ 1.89 to 30.2 µM) | 1 to 16 mg/L (≈ 1.89 to 30.2 µM) | 1 to 16 mg/L (≈ 1.89 to 30.2 µM)

Now from value to molecule:

Row | MIC [1] | MIC [2] | MIC [3] | MIC [4] | MIC [5] | MIC [6] | MIC [7] | SMILES
5 | 0.12 to 16 mg/L (≈ 0.221 to 29.4 µM) | 0.12 to 16 mg/L (≈ 0.221 to 29.4 µM) | 0.12 to 16 mg/L (≈ 0.221 to 29.4 µM) | 0.12 to 16 mg/L (≈ 0.221 to 29.4 µM) | 0.12 to 16 mg/L (≈ 0.221 to 29.4 µM) | 0.12 to 16 mg/L (≈ 0.221 to 29.4 µM) | 0.12 to 16 mg/L (≈ 0.221 to 29.4 µM) | C[C@H](n1nnnc1CCN1CCN(c2cccc(Cl)c2)CC1)[C@](O)(Cn1cncn1)c1ccc(F)cc1F
6 | 0.12 to 16 mg/L (≈ 0.2 to 26.7 µM) | 0.12 to 16 mg/L (≈ 0.2 to 26.7 µM) | 0.12 to 16 mg/L (≈ 0.2 to 26.7 µM) | 0.12 to 16 mg/L (≈ 0.2 to 26.7 µM) | 0.12 to 16 mg/L (≈ 0.2 to 26.7 µM) | 0.12 to 16 mg/L (≈ 0.2 to 26.7 µM) | 0.12 to 16 mg/L (≈ 0.2 to 26.7 µM) | C[C@H](n1nnnc1CCN1CCN(C(c2ccccc2)c2ccccc2)CC1)[C@](O)(Cn1cncn1)c1ccc(F)cc1F
7 | 0.5 to 16 mg/L (≈ 0.974 to 31.2 µM) | 0.5 to 16 mg/L (≈ 0.974 to 31.2 µM) | 0.5 to 16 mg/L (≈ 0.974 to 31.2 µM) | 0.5 to 16 mg/L (≈ 0.974 to 31.2 µM) | 0.5 to 16 mg/L (≈ 0.974 to 31.2 µM) | 0.5 to 16 mg/L (≈ 0.974 to 31.2 µM) | 0.5 to 16 mg/L (≈ 0.974 to 31.2 µM) | OC(Cn1cncn1)(Cn1nnnc1CCN1CCN(c2ccc(F)cc2)CC1)c1ccc(F)cc1F (stereo not drawn)
8 | 0.5 to 16 mg/L (≈ 0.919 to 29.4 µM) | 0.5 to 16 mg/L (≈ 0.919 to 29.4 µM) | 0.5 to 16 mg/L (≈ 0.919 to 29.4 µM) | 0.5 to 16 mg/L (≈ 0.919 to 29.4 µM) | 0.5 to 16 mg/L (≈ 0.919 to 29.4 µM) | 0.5 to 16 mg/L (≈ 0.919 to 29.4 µM) | 0.5 to 16 mg/L (≈ 0.919 to 29.4 µM) | CC(n1nnnc1CCN1CCN(c2ccc(Cl)cc2)CC1)C(O)(Cn1cncn1)c1ccc(F)cc1F (stereo not drawn)
9 | 0.5 to 16 mg/L (≈ 0.919 to 29.4 µM) | 0.5 to 16 mg/L (≈ 0.919 to 29.4 µM) | 0.5 to 16 mg/L (≈ 0.919 to 29.4 µM) | 0.5 to 16 mg/L (≈ 0.919 to 29.4 µM) | 0.5 to 16 mg/L (≈ 0.919 to 29.4 µM) | 0.5 to 16 mg/L (≈ 0.919 to 29.4 µM) | 0.5 to 16 mg/L (≈ 0.919 to 29.4 µM) | CC(n1nnnc1CCN1CCN(c2cccc(Cl)c2)CC1)C(O)(Cn1cncn1)c1ccc(F)cc1F (stereo not drawn)
